Test results taken from patent US20240299345A1, “GINKGOLIDE B AND ITS DERIVATIVES FOR INHIBITING AND/OR REVERSING AGING” (CHINA MEDICAL UNIVERSITY, priority 2023, published 2024).

Key:
[1] = test system: 20-month-old aged female C57BL/6 mice; experiment: Metabolic health in aged mice (body weight, composition, intake, lipids, IPGTT, IPITT, gene expression); format: in vivo, mouse
Description: For the food and water intake measurement, mice were divided into individual animal cages individually for 3 days for stabilizing the animals, and then daily consumption was recorded. The values were calculated by adjusting for body weight.
Body composition was measured by Minispec LF50 TD-NMR (Bruker, MA, USA) based on nuclear magnetic resonance methods. Briefly, mice were anesthetized for the duration of the procedure by 3% isoflurane (Zoctis, London, UK) and placed in the scanning chamber in the prone position, with the limbs and tail stretched away from the body. The analysis would be conducted by default software per manufacturer's protocol. The vascular networks […] were quantified by in vivo micro-computed tomography (U-CT, Milabs, Netherlands). Briefly, mice intravenously received 150 μL ExiTron™ nano 12000 (#130-095-698, Miltonic Biotec GmbH, Bergisch Gladbach, Germany), and then mice were anesthetized with isoflurane before being positioned on the scanning chamber. After scanning, the blood vessels were analyzed by a curved multiplanar reconstruction algorithm by using Osirix software (Bernex, Switzerland).
Mice fasted 16 hours and 2 hours before performing an IPGT test and IPIT test, respectively. IPGTT was performed by intraperitoneal injection of fasted mice with 1% body weight of sterile glucose/PBS (20% weight/volume). IPITT was performed by intraperitoneal injection of fasted mice with insulin (0.75 unit/kg body weight) (#12585014, Gibco). Blood glucose levels were measured at indicative timepoints after injection by a blood glucometer (countour plus, Ascensia Diabetes Care, Hong Kong).
Serum was collected by cardiac puncture upon sacrifice.
(§1) RNAs were purified by using the TRIzol® (#15596018, Invitrogen) and chloroform method (#C7559, Sigma-Aldrich) and reversed transcribed using High-Capacity cDNA Reverse Transcription Kit (#4368814, Applied Biosystems, Foster City, CA, USA). The quantitative RT-PCR was conducted with universal probe system (Roche Life Science, Indianapolis, IN, USA) by using a QuantStudio™ 7 Flex Real-Time PCR System (Applied Biosystems) and was normalized by the expression of GAPDH.

[2] = test system: IL-6, IFN-γ; F4/80, CD86, CD206 cells; experiment: Tissue inflammatory cytokines (real-time PCR) and bone marrow macrophage IHC in aged mice; format: in vivo, mouse
Description: as §1

[3] = test system: aged M1 macrophages, MPD C2C12, MPD C2C12-derived myotubes; experiment: Inflammatory cytokine expression in aged cells under culture conditions; format: cell-based, mouse; conditions: GB 5 mg/L for 48 hr
Description: C2C12 myoblast cell line (#CRL-1772TM, ATCC, Manassas, VA, USA) was expanded in high-glucose DMEM (#D7777, Sigma-Aldrich) with 10% FBS (#10270106, Gibco, Waltham, MA, USA) and 1% PSG (#10378016, Gibco). Passage 15-20 C2C12 was considered as multiple population doublings C2C12. Subconfluent C2C12 was differentiated to myotubes by myogenic induction medium, high-glucose DMEM (Sigma-Aldrich) containing 2% horse scrum (#16050122, Gibco) for 5 days. Aged bone-marrow monocytes were isolated from 20-month-old female C57BL/6 mice and then differentiated into macrophages in RPMI 1640 (#11875085, Gibco) supplemented with 10% FBS and 20 ng/ml M-CSF (#315-02, PeproTech, Cranbury, NJ, USA). Inflammatory MI macrophages were induced by 45 ng/mL IFN-γ (#485-MI-100, R&D Systems, Minneapolis, MN, USA) +100 ng/mL LPS (#L4391, Sigma-Aldrich). The indicative cells were then treated with or without GB (5 mg/L) for 48 hr. […]
as §1

[4] = test system: H2O2-induced senescent human MSCs; experiment: H2O2-induced senescence in human MSCs; format: cell-based; conditions: GB 5 mg/L
Description: C2C12 myoblast cell line (#CRL-1772TM, ATCC, Manassas, VA, USA) was expanded in high-glucose DMEM (#D7777, Sigma-Aldrich) with 10% FBS (#10270106, Gibco, Waltham, MA, USA) and 1% PSG (#10378016, Gibco). Passage 15-20 C2C12 was considered as multiple population doublings C2C12. Subconfluent C2C12 was differentiated to myotubes by myogenic induction medium, high-glucose DMEM (Sigma-Aldrich) containing 2% horse scrum (#16050122, Gibco) for 5 days. Aged bone-marrow monocytes were isolated from 20-month-old female C57BL/6 mice and then differentiated into macrophages in RPMI 1640 (#11875085, Gibco) supplemented with 10% FBS and 20 ng/ml M-CSF (#315-02, PeproTech, Cranbury, NJ, USA). Inflammatory MI macrophages were induced by 45 ng/mL IFN-γ (#485-MI-100, R&D Systems, Minneapolis, MN, USA) +100 ng/mL LPS (#L4391, Sigma-Aldrich). The indicative cells were then treated with or without GB (5 mg/L) for 48 hr. Commercial human mesenchymal stem cells (MSCs)40 were cultured in MSC maintenance medium consisting of IMDM, 10% FBS (#10270106, Gibco), 10 ng/ml bFGF (#233-FB, R&D Systems) and 1% PSG (#10378016, Gibco). To induce senescence, we treated cells at approximately 50% confluence with 200 μM H2O2 for 2 hr and then washed cells by PBS two times to remove H202. The cells were treated with GB (5 mg/L) or vehicle in fresh growth medium and subjected to the subsequent experiments at indicative time point.
Cell viability was measured by a CCK-8 kit (#ab228554, Abcam), and cell proliferation was determined by manually cell counting with hemocytometer. Senescence-associated β-galactosidase activity was determined by senescence-associated β-galactosidase staining kit (#9860, Cell Signaling Technology, Danvers, Massachusetts, USA) according to the manufacturer's instructions. Senescence-associated heterochromatin foci were visualized by DAPI staining.
as §1

[5] = test system: 20-month-old female C57BL/6 mice; experiment: Lifespan and cancer incidence analysis, lifelong GB from 20 months of age; format: in vivo, mouse
Description: The mice were not involved in any experiments to maximally reduce potential interference and stress to animals.

[6] = test system: 20-month-old aged female C57BL/6 mice
Description: Animals were kept up to five per cage and were randomly assigned to control and experimental groups in all experiments. […] For the short-term experiment, 3-(young), 6-(adult) and 20-month-old (aged) female C57BL/6 mice were administered 12 mg/kg body weight GB (#G6910, Sigma-Aldrich, St. Louis, MO, USA) or vehicle daily by oral gavage for two months.
The noninvasive 31-item frailty index established by Whitehead et al. was used to evaluate frailty in mice (Whitehead, J. C. et al. A clinical frailty index in aging mice: comparisons with frailty index data in humans. J Gerontol A Biol Sci Med Sci 69, 621-632, doi:10.1093/gerona/glt136 (2014)). Whole assessments were conducted by blind investigators as possible. The scored items represent the aging-related deteriorations based on the criteria in clinical practice, consisting of the integument, musculoskeletal system, vestibulocochlear and auditory systems, ocular and nasal systems, digestive system, urogenital system, respiratory system, signs of discomfort, body weight and body surface temperature. Surface body temperature was determined by an infrared thermometer (Thermo Distance, Terraillon, Croissy-sur-seine, France), and grip strength was measured by the standard equipment described in the later section. The other subjective observations were scored by researchers. The scores 0, 0.5 and 1 indicated no sign of frailty, moderate defect and severe defect, respectively. For the body temperature, grip strength and body weight scoring, the average and standard deviation (STDEV) values were used as a baseline. A change within one STDEV is scored as a 0, a decreased change over one STDEV but lower than two STDEV was scored as a 0.5 and a change more than two STDEV was scored as a 1.

[7] = test system: kidney, heart, spleen and liver in aged mice; experiment: Organ pathology, blood chemistry and tolerability after 2 months of GB in mice
Description: All animals were purchased from Laboratory Animal Services Centre, the Chinese University of Hong Kong, ad libitum fed the standard diet (#5V0f, LabDiet, St. Louis, MO, USA), and housed at specific-pathogen-free and humidity-controlled conditions under a 12 light: 12 dark photoperiod with temperature at 20-22° C. Animals were kept up to five per cage and were randomly assigned to control and experimental groups in all experiments. […] For the short-term experiment, 3-(young), 6-(adult) and 20-month-old (aged) female C57BL/6 mice were administered 12 mg/kg body weight GB (#G6910, Sigma-Aldrich, St. Louis, MO, USA) or vehicle daily by oral gavage for two months. […] GB was diluted to the appropriate concentration in 100 μL of sterile PBS (#10378016, Gibco, Waltham, MA, USA).
Tissue samples were harvested and embedded in paraffin or in OCT (#4583, Sakura Finetek USA, Torrance, CA, USA). For paraffin-embedded samples, 10 μm sections were deparaffinized by xylene and alcohol gradient treatment and were then hydrated by distilled water and processed for heat-induced antigen retrieval with antigen retrieval solution at 70° C. for 1.5 hours before staining. For OCT-embedded samples, 10 μm sections were hydrated by distilled water before staining. Hematoxylin and cosin staining (#MHS16 and #HT110116 Sigma-Aldrich), oil red O staining (#00625, Sigma-Aldrich), and Masson's trichrome staining (#HT15, Sigma-Aldrich) were used to assess the histology, lipid droplet, and collagen deposition. For immunohistochemical staining, antigen-retrieval samples were blocked with 5% bovine serum albumin (BSA) (#A9647, Sigma-Aldrich) for 1 hour at room temperature and incubated with primary antibodies overnight at 4° C., followed by a ready-to-use IHC/ICC Kit (#K405, BioVision, Milpitas, CA, USA) at room temperature. The samples were then suspended with double-distilled water and then stained with hematoxylin. For immunocytochemical staining, samples were blocked with 5% BSA (Sigma-Aldrich) for 1 hour at room temperature and incubated with primary antibodies overnight at 4° C., then washed with PBS for ten minutes, and then incubated with secondary antibody for 1 hour at room temperature, then washed with PBS three times for ten minutes.

[8] = aged mice, GB 2 months, p<0.0001
[9] = among the three groups (young, vehicle-aged, GB-aged)
[10] = of 18 measurements increased by aging

CC1C(=O)OC2C(O)C34C5CC(C(C)(C)C)C36C(OC(=O)C6O)OC4(C(=O)O5)C12O (centres unmarked) [GB, Ginkgolide B]
food and water consumptions ([1]; aged mice, GB 2 months vs vehicle, p=0.5127 and 0.9368): not improved | lean mass [1, 8]: increase | whole-body fat mass [1, 8]: decrease | expression of Pkm in aged skeletal muscle ([1]; aged mice, GB 2 months, p<0.0001, not in aged liver): restored | expression of Glut4 in aged skeletal muscle ([1]; aged mice, GB 2 months, p=0.0035, not in aged liver): restored | aging-related alteration in serum total cholesterol level ([1]; aged mice, GB 2 months, p=0.0284): reversed | aging-related glucose intolerance (IPGTT) ([1]; aged mice, GB 2 months, p=0.0322 in AUC): improved | aging-related alteration in serum triglyceride level ([1]; aged mice, GB 2 months, p=0.0424): reversed | body weight reduction ([1]; aged mice, post-GB administration 2 months, p=0.0123): 6% | fasting blood glucose [1, 9]: no significant difference | insulin sensitivity (IPITT) [1, 9]: no difference | inflammatory cytokines IL-6 and IFN-γ in multiple tissues ([2]; GB 2 months, real-time PCR): downregulated | CD86+ pro-inflammatory M1 macrophages ([2]; femur bone marrow IHC): decrease | CD206+ anti-inflammatory M2 macrophages ([2]; femur bone marrow IHC): increased | aging-related accumulation of bone marrow F4/80+ cells ([2]; femur bone marrow IHC): reversed | inflammatory cytokines in aged cells under culture conditions [3]: downregulated | cellular morphology [4]: restored the spindle sharp from flattened and enlarged morphology | expression of senescence markers [4]: reduced | proliferation [4]: promoted | senescence-associated heterochromatin foci and nucleus size [4]: reduced | senescence-associated β-galactosidase (SA-β-Gal) staining ([4]; p=0.0007): reduced | cellular viability (CCK8) ([4]; p=0.0026): promoted | age at 50% cumulative cancer incidence ([5]; GB group, vehicle 891 days, p=0.0002 log-rank): 1025 days | aging-associated mortality ([5]; GB vs vehicle aged mice): delayed | hazard ratio by Mantel-Haenszel ([5]; GB vs vehicle aged mice): 0.4577 | hazard ratio by log-rank test ([5]; GB vs vehicle aged mice): 0.3526 | macroscopic tumors detected by necropsy ([5]; GB-aged mice compared with vehicle group): less macroscopic tumors | median lifespan extension ([5]; from the inception of GB administration at 20 months, 12 mg/kg daily, p=0.0002 log-rank, 0.0064 Gehan-Breslow-Wilcoxon): 30% | lifespan extension (summary statement) ([5]; lifelong oral GB in mice starting from 20 months old): 20% | median lifespan extensions by tumor incidence ([5]; p=0.0011 and 0.03 by log-rank test): observed in both tumor and non-tumor cohorts | extension of mean maximal lifespans of the 10% and 20% longest-lived mice ([5]; p=0.0286 and 0.0006): around 55 days | reduction of aging-related frailty index score ([6]; aged mice, GB 2 months vs vehicle-aged, p<0.0001): 63.1% | average frailty index score ([6]; aged mice, GB 2 months, mean±SD, vehicle-aged 0.43±0.13, young 0.01±0.01): 0.16±0.05 | deterioration of frailty ([6]; mouse, in vivo): did not observe any deterioration | number of aging-related frailty measurements modestly attenuated [6, 10]: 3 | number of aging-related frailty measurements reversed [6, 10]: 13 | collagen deposition in multiple organs ([7]; Masson's trichrome, aged mice): reduced | severe acute toxicity ([7]; adult, aged or OVX mice, none of the treated mice dying during the two months of GB administration): did not find severe acute toxicity | compensatory hypertrophy of the kidney and heart ([7]; aged mice, GB 2 months): decreased | aging-related compensatory hypertrophy of glomerulus ([7]; aged mice, histopathology, p<0.0001): reduced | aging-related compensatory hypertrophy of cardiomyocytes ([7]; aged mice, histopathology, p=0.0018): reduced | reduction of aging-related hepatic lipid accumulation ([7]; aged mice, p<0.0001): 3.8 fold | decrease in white pulp and white pulp/red pulp ratio in aged spleen ([7]; aged mice, p<0.0001 and p=0.0143): ameliorated | number of hepatic microgranulomas ([7]; aged mice, p=0.0031): decreased
